The term EC50 denotes the concentration needed to bring the measured effect to its halfway point. A higher EC50 goes with a less potent agent.

FXR, sequence (Q96RI1 262-486): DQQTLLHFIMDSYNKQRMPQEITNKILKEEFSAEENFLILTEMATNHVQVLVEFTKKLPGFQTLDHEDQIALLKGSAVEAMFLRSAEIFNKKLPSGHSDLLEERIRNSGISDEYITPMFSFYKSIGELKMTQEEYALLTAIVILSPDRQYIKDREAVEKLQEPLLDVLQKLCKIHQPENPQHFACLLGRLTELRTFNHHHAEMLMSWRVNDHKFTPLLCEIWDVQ

This test addresses FXR (Homo sapiens (Human), UniProt Q96RI1). In words: FXR EC50 (FXR agonist activity reported with each example). Type of test: cell-based.
The compound `O=C(O)c1cc(C(F)(F)F)cc(C23CCC(COCc4c(-c5c(Cl)cncc5Cl)noc4C4CC4)(CC2)CO3)c1` [Example 490, 3-(4-(((5-cyclopropyl-3-(3,5-dichloropyridin-4-yl)isoxazol-4-yl)methoxy)methyl)-2-oxabicyclo[2.2.2]octan-1-yl)-5-(trifluoromethyl)benzoic acid] gave an EC50 of 96 nM.

As to `O=C(O)c1cc(C(F)(F)F)cc(C23CCC(/C=C/c4c(-c5c(Cl)cncc5Cl)noc4C4CC4)(CC2)CO3)c1` [Example 491, (E)-3-(4-(2-(5-cyclopropyl-3-(3,5-dichloropyridin-4-yl)isoxazol-4-yl)vinyl)-2-oxabicyclo[2.2.2]octan-1-yl)-5-(trifluoromethyl)benzoic acid], the midpoint of the response, the EC50, lay at 26 nM.

For the compound `COc1ccc(-c2noc(C34CCC(/C=C/c5c(-c6c(Cl)cncc6Cl)noc5C5CC5)(CC3)CO4)n2)cc1C(=O)O` [Example 492, (E)-5-(5-(4-(2-(5-cyclopropyl-3-(3,5-dichloropyridin-4-yl)isoxazol-4-yl)vinyl)-2-oxabicyclo[2.2.2]octan-1-yl)-1,2,4-oxadiazol-3-yl)-2-methoxybenzoic acid], the EC50 is 250 nM.

For `COc1cc(OCC23CCC(/C=C/c4c(-c5c(Cl)cncc5Cl)noc4C4CC4)(CC2)CC3)cc(C(=O)O)c1` [Example 493, (E)-3-((4-(2-(5-cyclopropyl-3-(3,5-dichloropyridin-4-yl)isoxazol-4-yl)vinyl)bicyclo[2.2.2]octan-1-yl)methoxy)-5-methoxybenzoic acid], the EC50 was 18 nM.

In turn, `O=C(O)c1cc(-c2noc(C34CCC(/C=C/c5c(-c6c(Cl)cncc6Cl)noc5C5CC5)(CC3)OC4)n2)cc(C(F)(F)F)c1` [Example 494, (E)-3-(5-(1-(2-(5-cyclopropyl-3-(3,5-dichloropyridin-4-yl)isoxazol-4-yl)vinyl)-2-oxabicyclo[2.2.2]octan-4-yl)-1,2,4-oxadiazol-3-yl)-5-(trifluoromethyl)benzoic acid] registered an EC50 of 130 nM.

Consider `O=C(O)c1cccc(-c2noc(C34CCC(/C=C/c5c(-c6c(Cl)cncc6Cl)noc5C5CC5)(CC3)OC4)n2)c1` [Example 495, (E)-3-(5-(1-(2-(5-cyclopropyl-3-(3,5-dichloropyridin-4-yl)isoxazol-4-yl)vinyl)-2-oxabicyclo[2.2.2]octan-4-yl)-1,2,4-oxadiazol-3-yl)benzoic acid], for which a half-maximal effect (EC50) was put at 1700 nM.

For the compound `COc1ccc(-c2noc(C34CCC(/C=C/c5c(-c6c(Cl)cncc6Cl)noc5C5CC5)(CC3)OC4)n2)cc1C(=O)O` [Example 496, (E)-5-(5-(1-(2-(5-cyclopropyl-3-(3,5-dichloropyridin-4-yl)isoxazol-4-yl)vinyl)-2-oxabicyclo[2.2.2]octan-4-yl)-1,2,4-oxadiazol-3-yl)-2-methoxybenzoic acid], the response was half-maximal at 1000 nM (EC50).

Consider `O=C(O)c1cc(OC(F)F)cc(-c2noc(C34CCC(/C=C/c5c(-c6c(Cl)cncc6Cl)noc5C5CC5)(CC3)OC4)n2)c1` [Example 497, (E)-3-(5-(1-(2-(5-cyclopropyl-3-(3,5-dichloropyridin-4-yl)isoxazol-4-yl)vinyl)-2-oxabicyclo[2.2.2]octan-4-yl)-1,2,4-oxadiazol-3-yl)-5-(difluoromethoxy)benzoic acid], for which a half-maximal effect (EC50) was put at 460 nM.

`O=C(O)c1cc(OC(F)F)c2cc(OCC34CCC(/C=C/c5c(-c6c(Cl)cncc6Cl)noc5C5CC5)(CC3)CO4)ccc2n1` [Example 498, (E)-6-((4-(2-(5-cyclopropyl-3-(3,5-dichloropyridin-4-yl)isoxazol-4-yl)vinyl)-2-oxabicyclo[2.2.2]octan-1-yl)methoxy)-4-(difluoromethoxy)quinoline-2-carboxylic acid] yielded an EC50 of 250 nM.

Turning to `O=C(O)c1cc(OCC23CCC(/C=C/c4c(-c5c(Cl)cncc5Cl)noc4C4CC4)(CC2)CO3)cc(OC(F)F)c1` [Example 499, (E)-3-((4-(2-(5-cyclopropyl-3-(3,5-dichloropyridin-4-yl)isoxazol-4-yl)vinyl)-2-oxabicyclo[2.2.2]octan-1-yl)methoxy)-5-(difluoromethoxy)benzoic acid], the EC50 worked out at 160 nM.

On to `O=C(O)c1cc(C(F)(F)F)c2cc(OCC34CCC(/C=C/c5c(-c6c(Cl)cncc6Cl)noc5C5CC5)(CC3)CO4)ccc2n1` [Example 500, (E)-6-((4-(2-(5-cyclopropyl-3-(3,5-dichloropyridin-4-yl)isoxazol-4-yl)vinyl)-2-oxabicyclo[2.2.2]octan-1-yl)methoxy)-4-(trifluoromethyl)quinoline-2-carboxylic acid], for which the EC50 came out at 160 nM.

For `CC(C)Oc1cc(C(=O)O)nc2ccc(OCC34CCC(/C=C/c5c(-c6c(Cl)cncc6Cl)noc5C5CC5)(CC3)CO4)cc12` [Example 501, (E)-6-((4-(2-(5-cyclopropyl-3-(3,5-dichloropyridin-4-yl)isoxazol-4-yl)vinyl)-2-oxabicyclo[2.2.2]octan-1-yl)methoxy)-4-isopropoxyquinoline-2-carboxylic acid], a half-maximal response (EC50) required 54 nM.

The compound `O=C(O)c1cccc2nc(C34CCC(/C=C\c5c(-c6c(Cl)cccc6Cl)noc5C5CC5)(CC3)CC4)sc12` [Example 502, (Z)-2-(4-(2-(5-cyclopropyl-3-(2,6-dichlorophenyl)isoxazol-4-yl)vinyl)bicyclo[2.2.2]octan-1-yl)benzo[d]thiazole-7-carboxylic acid] showed an EC50 of 1500 nM.

`O=C(O)c1cccc2nc(C34CCC(/C=C/c5c(-c6c(Cl)cncc6Cl)noc5C5CC5)(CC3)CC4)sc12` [Example 503, (E)-2-(4-(2-(5-cyclopropyl-3-(3,5-dichloropyridin-4-yl)isoxazol-4-yl)vinyl)bicyclo[2.2.2]octan-1-yl)benzo[d]thiazole-7-carboxylic acid] came in with an EC50 of 31 nM.

With `O=C(O)c1cccc(-c2noc(C34CCC(/C=C/c5c(-c6c(Cl)cncc6Cl)noc5C5CC5)(CC3)CC4)n2)c1` [Example 504, (E)-3-(5-(4-(2-(5-cyclopropyl-3-(3,5-dichloropyridin-4-yl)isoxazol-4-yl)vinyl)bicyclo[2.2.2]octan-1-yl)-1,2,4-oxadiazol-3-yl)benzoic acid], the response was half-maximal at 33 nM (EC50).

In the case of `O=C(O)c1ccc2nc(C34CCC(/C=C/c5c(-c6c(Cl)cncc6Cl)noc5C5CC5)(CC3)CC4)sc2c1` [Example 505, (E)-2-(4-(2-(5-cyclopropyl-3-(3,5-dichloropyridin-4-yl)isoxazol-4-yl)vinyl)bicyclo[2.2.2]octan-1-yl)benzo[d]thiazole-6-carboxylic acid], the EC50 was 88 nM.

In turn, `O=C(O)c1cc(OCC23CCC(/C=C/c4c(-c5c(Cl)cncc5Cl)noc4C4CC4)(CC2)CC3)cc(C(F)(F)F)c1` [Example 506, (E)-3-((4-(2-(5-cyclopropyl-3-(3,5-dichloropyridin-4-yl)isoxazol-4-yl)vinyl)bicyclo[2.2.2]octan-1-yl)methoxy)-5-(trifluoromethyl)benzoic acid] came in with an EC50 of 6 nM.

Consider `O=C(O)c1cc(C(F)(F)F)cc2nc(C34CCC(/C=C/c5c(-c6c(Cl)cncc6Cl)noc5C5CC5)(CC3)CC4)sc12` [Example 507, (E)-2-(4-(2-(5-cyclopropyl-3-(3,5-dichloropyridin-4-yl)isoxazol-4-yl)vinyl)bicyclo[2.2.2]octan-1-yl)-5-(trifluoromethyl)benzo[d]thiazole-7-carboxylic acid], for which the EC50 amounted to 20 nM.

These data come from patent publication US10730863B2, “Bridged bicyclic compounds as farnesoid X receptor modulators” (BRISTOL-MYERS SQUIBB COMPANY, priority 2017, dated 2020).
